The values that follow come from patent US7323569B2, “7-phenylpyrazolopyridine compounds” (Eisai R&D Management Co., Ltd., priority 2002, dated 2008).

Where two headings read alike, the source gives them in different places.

The subject of this data set is CYP3A4. The conditions noted are these: human, hepatocytes, 48 h. The protocol:
Evaluation of Drug Metabolizing Enzyme (CYP3A4) Inducibility Using Cryopreserved Human Hepatocyte
Cryopreserved hepatocytes (In Vitro Technology) were rapidly thawed while stirring at 37° C., and then ice-cooled William's Medium E (10% FBS, +PSG) was slowly added to the cells prior to centrifugation at 500 rpm for 5 minutes. After removing the supernatant, the obtained hepatocytes were diluted with ice-cooled William's Medium E to a concentration of 5×10^5 cells/mL, seeded on a 48-well collagen coated plate (BD Biosciences) at 1×10^5 cells/cm^2 and incubated for about 24 hours at 37° C., 5% CO2, after which the medium was changed with Hepato-STIM™ (BD Biosciences) (+EGF, PSG, −FBS) and culture was maintained for another 24 hours under conditions of 37° C., 5% CO2. At approximately 48 hours after the cell seeding, the test compound or rifampicin (SIGMA, positive control) in the form of a diluted solution (using Hepato-STIM™ (+EGF, PSG, −FBS)) was added, hepatocyte were incubated for about 24 hours under conditions of 37° C., 5% CO2, and the culture medium was changed with medium containing a freshly prepared dilution of the test compound or rifampicin prior to further incubation for 24 hours under the same conditions. After incubation, the cells were washed once with PBS, and the total RNA was extracted using a Qiagen RNeasy Mini kit (Qiagen). The cDNA was synthesized by reverse-transcription of extracted using TaqMan Reverse Transcription Reagents (Applied Biosystems). The reverse transcription reaction was carried out using oligo dT as primer, with treatment at 25° C. for 10 minutes followed by treatment at 48° C. for 60 minutes, after which the reverse transcriptase was inactivated by treatment at 95° C. for 10 minutes. The obtained cDNA was supplied to a PCR using a Gene Amp PCR system 9700. The obtained cDNA was quantitated using an SYBR Green PCR Core Reagents kit (Applied Biosystems), and the human CYP3A4 and GAPDH mRNA was quantitated using an ABI7700 (Applied Biosystems). The abbreviations used in the test example are explained below. • FBS: Fetal Bovine Serum • PSG: Penicillin (100 U/ml), Streptomycin (100 μg/ml), Glutamine (2 mM) • EGF: Epidermal Growth Factor • GAPDH: Glyceraldehyde-3-Phosphate Dehydrogenase
(2) Calculation of CYP3A4 Inducibility
Next, for comparison of each test run, the differences between the value of the CYP3A4 mRNA amount divided by the GAPDH mRNA amount with addition of the test compound at various concentrations and with addition of the negative control were calculated as percentages, with 100% being defined as the difference between the values of the CYP3A4 mRNA amount divided by the GAPDH mRNA amount for the positive control and negative control, to determine the inducibility of each test compound.

Regarding `CCOCc1cc(OC)c(-c2cccc3c(N(CC4CCOCC4)CC4CC4)c(CC)nn23)c(OC)c1` [Example 3, N-Cyclopropylmethyl-N-7-[4-(ethoxymethyl)-2,6-dimethoxyphenyl]-2-ethylpyrazolo[1,5-a]pyridin-3-yl-N-tetrahydro-2H-4-pyranylmethylamine], the “CYP3A4 inducibility, % of Positive Control” value (from here on “CYP3A4 inducibility, %”) (0.03 μM) came to 3%; the “CYP3A4 inducibility, %” value (0.1 μM) turned out to be 3%; the “CYP3A4 inducibility, %” value (0.3 μM) is 7%; the “CYP3A4 inducibility, %” value (1 μM) was 25%; the “CYP3A4 inducibility, %” value (3 μM) worked out at 23%; the “CYP3A4 inducibility, %” value (10 μM) was determined as 34%. Moreover, for the setting “1 μM”, the “CYP3A4 inducibility” value is reported as no more than 40%.
As for `COCc1cc(OC)c(-c2cccc3c(N(CC4CCOCC4)CC4CC4)c(SC)nn23)c(OC)c1` [Example 59, N-Cyclopropylmethyl-N-[7-[2,6-dimethoxy-4-(methoxymethyl)phenyl]-2-(methylsulfanyl)pyrazolo[1,5-a]pyridin-3-yl]-N-tetrahydro-2H-4-pyranylmethylamine], the “CYP3A4 inducibility, %” value by setting is: (0.03 μM) 2%; (0.1 μM) 3%; (0.3 μM) 11%; (1 μM) 25%; (3 μM) 49%; (10 μM) 59%. For the same compound, the “CYP3A4 inducibility” value (1 μM) is listed as no more than 40%.
As for `CCc1nn2c(-c3c(OC)cc(COC)cc3OC)cccc2c1N(CC1CCOCC1)CC1CC1` [Example 1, N-Cyclopropylmethyl-N-7-[2,6-dimethoxy-4-(methoxymethyl)phenyl]-2-ethylpyrazolo[1,5-a]pyridin-3-yl-N-tetrahydro-2H-4-pyranylmethylamine], the “CYP3A4 inducibility, %” value runs as follows: (0.03 μM) 6%; (0.1 μM) 7%; (0.3 μM) 12%; (1 μM) 20%; (3 μM) 36%; (10 μM) 65%. For the same compound, the “CYP3A4 inducibility” value (1 μM) is on record as no more than 40%.
